# Assay results from US8088815B2, “Spiroindolinone pyrrolidines” (Hoffman-La Roche Inc., priority 2009, dated 2012).
# Biological target: interaction between p53 and MDM2 proteins (Homo sapiens, UniProt Q00987)
# Assay: HTRF assay of inhibition of the p53-MDM2 interaction (GST-MDM2 / biotinylated p53 peptide)
# Type: binding
# Settings: recombinant GST-tagged MDM2 and biotinylated p53 peptide, bsa:0.02%
# interaction between p53 and MDM2 proteins, sequence (Q00987 whole entry): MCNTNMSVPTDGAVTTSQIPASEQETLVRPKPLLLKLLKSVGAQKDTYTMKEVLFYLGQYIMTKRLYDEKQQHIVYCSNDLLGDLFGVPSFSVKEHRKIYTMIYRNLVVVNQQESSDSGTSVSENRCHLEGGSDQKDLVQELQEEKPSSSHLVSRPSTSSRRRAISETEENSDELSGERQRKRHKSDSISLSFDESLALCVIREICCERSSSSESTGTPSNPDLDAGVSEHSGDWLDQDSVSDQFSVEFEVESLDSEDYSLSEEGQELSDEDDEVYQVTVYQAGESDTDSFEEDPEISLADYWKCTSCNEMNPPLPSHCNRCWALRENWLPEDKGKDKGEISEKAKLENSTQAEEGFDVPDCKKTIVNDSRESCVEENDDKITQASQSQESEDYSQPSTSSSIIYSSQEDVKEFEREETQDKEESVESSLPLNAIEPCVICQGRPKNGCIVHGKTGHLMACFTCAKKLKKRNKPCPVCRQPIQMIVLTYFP
row,SMILES,IC50 [nM]
1,"CC(C)(CO)C[C@@H]1N[C@@H](C(=O)Nc2ccc(C(N)=O)cc2)[C@H](c2cccc(Cl)c2F)[C@]12C(=O)Nc1cc(Cl)ccc12 (racemic) [Example 106, rac-(2′S,3′R,4′S,5′R)-6-chloro-4′-(3-chloro-2-fluoro-phenyl)-2′-(3-hydroxy-2,2-dimethyl-propyl)-2-oxo-1,2-dihydro-spiro[indole-3,3′-pyrrolidine]-5′-carboxylic acid (4-carbamoyl-phenyl)-amide]",9
2,"COc1cc(C(=O)O)ccc1NC(=O)[C@@H]1N[C@@H](CC(C)(C)C)[C@@]2(C(=O)Nc3cc(Cl)ccc32)[C@H]1c1cccc(Cl)c1 (racemic) [Example 108, rac-4-{[(2′S,3′R,4′R,5′R)-6-chloro-4′-(3-chloro-phenyl)-2′-(2,2-dimethyl-propyl)-2-oxo-1,2-dihydro-spiro[indole-3,3′-pyrrolidine]-5′-carbonyl]amino}-3-methoxy-benzoic acid]",9
3,"COC(=O)c1ccc(NC(=O)[C@@H]2N[C@@H](CC(C)(C)C)[C@@]3(C(=O)Nc4cc(Cl)ccc43)[C@H]2c2cccc(Cl)c2F)c(OC)c1 (racemic) [Example 109, rac-4-{[(2′S,3′R,4′S,5′R)-6-chloro-4′-(3-chloro-2-fluoro-phenyl)-2′-(2,2-dimethyl-propyl)-2-oxo-1,2-dihydro-spiro[indole-3,3′-pyrrolidine]-5′-carbonyl]amino}-3-methoxy-benzoic acid methyl ester]",11
4,"COc1cc(C#N)ccc1NC(=O)[C@@H]1N[C@@H](CC(C)(C)C)[C@@]2(C(=O)Nc3cc(Cl)c(F)cc32)[C@H]1c1cccc(Cl)c1F (racemic) [Example 112, rac-(2′S,3′R,4′S,5′R)-6-chloro-4′-(3-chloro-2-fluoro-phenyl)-2′-(2,2-dimethyl-propyl)-5-fluoro-2-oxo-1,2-dihydro-spiro[indole-3,3′-pyrrolidine]-5′-carboxylic acid (4-cyano-2-methoxy-phenyl)-amide]",15
5,"COc1cc(C(N)=O)ccc1NC(=O)[C@@H]1N[C@@H](CC(C)(C)C)[C@@]2(C(=O)Nc3cc(Cl)c(F)cc32)[C@H]1c1cccc(Cl)c1F (racemic) [Example 113, rac-(2′S,3′R,4′S,5′R)-6-chloro-4′-(3-chloro-2-fluoro-phenyl)-2′-(2,2-dimethyl-propyl)-5-fluoro-2-oxo-1,2-dihydro-spiro[indole-3,3′-pyrrolidine]-5′-carboxylic acid (4-carbamoyl-2-methoxy-phenyl)-amide]",9
6,"COc1cc(C(N)=O)ccc1NC(=O)[C@@H]1N[C@@H](CC(C)(C)C)[C@@]2(C(=O)Nc3cc(Cl)ccc32)[C@H]1c1cccc(Br)c1F (racemic) [Example 117, rac-(2′S,3′R,4′S,5′R)-4′-(3-bromo-2-fluoro-phenyl)-6-chloro-2′-(2,2-dimethyl-propyl)-2-oxo-1,2-dihydro-spiro[indole-3,3′-pyrrolidine]-5′-carboxylic acid (4-carbamoyl-2-methoxy-phenyl)-amide]",7
7,"COc1cc(C#N)ccc1NC(=O)[C@@H]1N[C@@H](CC(C)(C)C)[C@@]2(C(=O)Nc3cc(Br)ccc32)[C@H]1c1cccc(Cl)c1F (racemic) [Example 118, rac-(2′S,3′R,4′S,5′R)-6-bromo-4′-(3-chloro-2-fluoro-phenyl)-2′-(2,2-dimethyl-propyl)-2-oxo-1,2-dihydro-spiro[indole-3,3′-pyrrolidine]-5′-carboxylic acid (4-cyano-2-methoxy-phenyl)-amide]",11
8,"COC(=O)c1ccc(NC(=O)[C@@H]2N[C@@H](CC(C)(C)C)[C@@]3(C(=O)Nc4cc(Br)ccc43)[C@H]2c2cccc(Cl)c2F)c(OC)c1 (racemic) [Example 122, rac-4-{[(2′S,3′R,4′S,5′R)-6-bromo-4′-(3-chloro-2-fluoro-phenyl)-2′-(2,2-dimethyl-propyl)-2-oxo-1,2-dihydro-spiro[indole-3,3′-pyrrolidine]-5′-carbonyl]-amino}-3-methoxy-benzoic acid methyl ester]",13
9,"COC(=O)c1ccc(NC(=O)[C@@H]2N[C@@H](CC(C)(C)C)[C@@]3(C(=O)Nc4cc(Cl)ccc43)[C@H]2c2cc(F)cc(Cl)c2)c(OC)c1 (racemic) [Example 124, rac-4-{[(2′S,3′R,4′R,5′R)-6-chloro-4′-(3-chloro-5-fluoro-phenyl)-2′-(2,2-dimethyl-propyl)-2-oxo-1,2-dihydro-spiro[indole-3,3′-pyrrolidine]-5′-carbonyl]-amino}-3-methoxy-benzoic acid methyl ester]",15
10,"COc1cc(C(=O)O)ccc1NC(=O)[C@@H]1N[C@@H](CC(C)(C)C)[C@@]2(C(=O)Nc3cc(Cl)ccc32)[C@H]1c1cc(F)cc(Cl)c1 (racemic) [Example 125, rac-4-{[(2′S,3′R,4′R,5′R)-6-chloro-4′-(3-chloro-5-fluoro-phenyl)-2′-(2,2-dimethyl-propyl)-2-oxo-1,2-dihydro-spiro[indole-3,3′-pyrrolidine]-5′-carbonyl]-amino}-3-methoxy-benzoic acid]",7

# The next lines start with the values.
row,IC50 [nM],SMILES
1,12,"CC(=O)OCC(C)(C)C[C@@H]1N[C@@H](C(=O)Nc2ccc(C#N)cc2)[C@H](c2cccc(Cl)c2F)[C@]12C(=O)Nc1cc(Cl)ccc12 (racemic) [Example 104, acetic acid rac-3-[(2′S,3′R,4′S,5′R)-6-chloro-4′-(3-chloro-2-fluoro-phenyl)-5′-(4-cyano-phenylcarbamoyl)-2-oxo-1,2-dihydro-spiro[indole-3,3′-pyrrolidin]-2′-yl]-2,2-dimethyl-propyl ester]"
2,13,"CC(C)(CO)C[C@@H]1N[C@@H](C(=O)Nc2ccc(C#N)cc2)[C@H](c2cccc(Cl)c2F)[C@]12C(=O)Nc1cc(Cl)ccc12 (racemic) [Example 105, rac-(2′S,3′R,4′S,5′R)-6-chloro-4′-(3-chloro-2-fluoro-phenyl)-2′-(3-hydroxy-2,2-dimethyl-propyl)-2-oxo-1,2-dihydro-spiro[indole-3,3′-pyrrolidine]-5′-carboxylic acid (4-cyano-phenyl)-amide]"
3,17,"COC(=O)c1ccc(NC(=O)[C@@H]2N[C@@H](CC(C)(C)C)[C@@]3(C(=O)Nc4cc(Cl)ccc43)[C@H]2c2cccc(Cl)c2)c(OC)c1 (racemic) [Example 107, rac-4-{[(2′S,3′R,4′R,5′R)-6-chloro-4′-(3-chloro-phenyl)-2′-(2,2-dimethyl-propyl)-2-oxo-1,2-dihydro-spiro[indole-3,3′-pyrrolidine]-5′-carbonyl]-amino}-3-methoxy-benzoic acid methyl ester]"
4,11,"COc1cc(C(=O)O)ccc1NC(=O)[C@@H]1N[C@@H](CC(C)(C)C)[C@@]2(C(=O)Nc3cc(Cl)ccc32)[C@H]1c1cccc(Cl)c1F (racemic) [Example 110, rac-4-{[(2′S,3′R,4′S,5′R)-6-chloro-4′-(3-chloro-2-fluoro-phenyl)-2′-(2,2-dimethyl-propyl)-2-oxo-1,2-dihydro-spiro[indole-3,3′-pyrrolidine]-5′-carbonyl]-amino}-3-methoxy-benzoic acid]"
5,12,"COc1cc(C#N)ccc1NC(=O)[C@@H]1N[C@@H](CC(C)(C)C)[C@@]2(C(=O)Nc3cc(Cl)ccc32)[C@H]1c1cc(F)cc(Cl)c1 (racemic) [Example 114, rac-(2′S,3′R,4′R,5′R)-6-chloro-4′-(3-chloro-5-fluoro-phenyl)-2′-(2,2-dimethyl-propyl)-2-oxo-1,2-dihydro-spiro[indole-3,3′-pyrrolidine]-5′-carboxylic acid (4-cyano-2-methoxy-phenyl)-amide]"
6,6,"COc1cc(C(N)=O)ccc1NC(=O)[C@@H]1N[C@@H](CC(C)(C)C)[C@@]2(C(=O)Nc3cc(Cl)ccc32)[C@H]1c1cc(F)cc(Cl)c1 (racemic) [Example 115, rac-(2′S,3′R,4′R,5′R)-6-chloro-4′-(3-chloro-5-fluoro-phenyl)-2′-(2,2-dimethyl-propyl)-2-oxo-1,2-dihydro-spiro[indole-3,3′-pyrrolidine]-5′-carboxylic acid (4-carbamoyl-2-methoxy-phenyl)-amide]"
7,15,"COc1cc(C#N)ccc1NC(=O)[C@@H]1N[C@@H](CC(C)(C)C)[C@@]2(C(=O)Nc3cc(Cl)ccc32)[C@H]1c1cccc(Br)c1F (racemic) [Example 116, rac-(2′S,3′R,4′S,5′R)-4′-(3-bromo-2-fluoro-phenyl)-6-chloro-2′-(2,2-dimethyl-propyl)-2-oxo-1,2-dihydro-spiro[indole-3,3′-pyrrolidine]-5′-carboxylic acid (4-cyano-2-methoxy-phenyl)-amide]"
8,7,"COc1cc(C(N)=O)ccc1NC(=O)[C@@H]1N[C@@H](CC(C)(C)C)[C@@]2(C(=O)Nc3cc(Br)ccc32)[C@H]1c1cccc(Cl)c1F (racemic) [Example 119, rac-(2′S,3′R,4′S,5′R)-6-bromo-4′-(3-chloro-2-fluoro-phenyl)-2′-(2,2-dimethyl-propyl)-2-oxo-1,2-dihydro-spiro[indole-3,3′-pyrrolidine]-5′-carboxylic acid (4-carbamoyl-2-methoxy-phenyl)-amide]"
9,6,"COc1cc(C(=O)O)ccc1NC(=O)[C@@H]1N[C@@H](CC(C)(C)C)[C@@]2(C(=O)Nc3cc(Br)ccc32)[C@H]1c1cccc(Cl)c1F (racemic) [Example 123, rac-4-{[(2′S,3′R,4′S,5′R)-6-bromo-4′-(3-chloro-2-fluoro-phenyl)-2′-(2,2-dimethyl-propyl)-2-oxo-1,2-dihydro-spiro[indole-3,3′-pyrrolidine]-5′-carbonyl]-amino}-3-methoxy-benzoic acid]"
10,29,"COC(=O)c1ccc(NC(=O)[C@@H]2N[C@@H](CC(C)(C)C)[C@@]3(C(=O)Nc4cc(Cl)ccc43)[C@H]2c2ccc(F)c(Cl)c2)c(OC)c1 (racemic) [Example 126, rac-4-{[(2′S,3′R,4′R,5′R)-6-chloro-4′-(3-chloro-4-fluoro-phenyl)-2′-(2,2-dimethyl-propyl)-2-oxo-1,2-dihydro-spiro[indole-3,3′-pyrrolidine]-5′-carbonyl]amino}-3-methoxy-benzoic acid methyl ester]"
